Assay results reported in patent publication US20230017045A1, “PYRIDINE AND PYRIMIDINE CARBOXYLATE HERBICIDES AND METHODS OF USE THEREOF” (Dow AgroSciences LLC, priority 2017, published 2023).
Where two headings read alike, the source gives them in different places.

Key:
[1] = test system: test plant species; test: Post-emergent herbicidal activity test (greenhouse, foliar spray, visual growth reduction); assay type: in vivo; conditions: post-emergence, 336 h, 140 g ai/ha, 14 days after application
How it was run: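 Greenhouse plants at first–second true leaf stage sprayed overhead at 187 L/ha with compound in acetone/water/isopropanol/DMSO/crop oil/X-77 carrier; controls received solvent blank. Injury rated visually after 14 d on a 0–100% scale versus untreated and control plants, converted to growth reduction.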

[2] = ALOMY: blackgrass (Alopecurus myosuroides), read-out: Visual Growth Reduction (%) 14 Days After Application, ALOMY
[3] = AMARE: redroot pigweed (Amaranthus retroflexus), read-out: Visual Growth Reduction (%) 14 Days After Application, AMARE
[4] = AVEFA: wild oat (Avena fatua), read-out: Visual Growth Reduction (%) 14 Days After Application, AVEFA
[5] = CHEAL: lambsquarters (Chenopodium album), read-out: Visual Growth Reduction (%) 14 Days After Application, CHEAL
[6] = CIRAR: canada thistle (Cirsium arvense), read-out: Visual Growth Reduction (%) 14 Days After Application, CIRAR
[7] = CYPES: yellow nutsedge (Cyperus esculentus), read-out: Visual Growth Reduction (%) 14 Days After Application, CYPES
[8] = DIGSA: crabgrass (Digitaria sanguinalis), read-out: Visual Growth Reduction (%) 14 Days After Application, DIGSA
[9] = ECHCG: barnyardgrass (Echinochloa crus-galli), read-out: Visual Growth Reduction (%) 14 Days After Application, ECHCG
[10] = IPOHE: ivy-leaf morning glory (Ipomoea hederacea), read-out: Visual Growth Reduction (%) 14 Days After Application, IPOHE
[11] = KCHSC: kochia (Bassia scoparia), read-out: Visual Growth Reduction (%) 14 Days After Application, KCHSC
[12] = ORYSA: rice (Oryza sativa), read-out: Visual Growth Reduction (%) 14 Days After Application, ORYSA
[13] = SETFA: giant foxtail (Setaria faberi), read-out: Visual Growth Reduction (%) 14 Days After Application, SETFA
[14] = SORVU: grain sorghum (Sorghum vulgare), read-out: Visual Growth Reduction (%) 14 Days After Application, SORVU
[15] = STEME: common chickweed (Stellaria media), read-out: Visual Growth Reduction (%) 14 Days After Application, STEME
[16] = TRZAS: wheat, spring (Triticum aestivum), read-out: Visual Growth Reduction (%) 14 Days After Application, TRZAS

| SMILES | pest or weed control at 140 g/ha [1, 2] | pest or weed control at 140 g/ha [1, 3] | pest or weed control at 140 g/ha [1, 4] | pest or weed control at 140 g/ha [1, 5] | pest or weed control at 140 g/ha [1, 6] | pest or weed control at 140 g/ha [1, 7] | pest or weed control at 140 g/ha [1, 8] | pest or weed control at 140 g/ha [1, 9] | pest or weed control at 140 g/ha [1, 10] | pest or weed control at 140 g/ha [1, 11] | pest or weed control at 140 g/ha [1, 12] | pest or weed control at 140 g/ha [1, 13] | pest or weed control at 140 g/ha [1, 14] | pest or weed control at 140 g/ha [1, 15] | pest or weed control at 140 g/ha [1, 16] | melting point |
| --- | --- | --- | --- | --- | --- | --- | --- | --- | --- | --- | --- | --- | --- | --- | --- | --- |
| COC(=O)c1nc(-c2ccc(C(F)(F)F)cc2Cl)c(F)c(OC)c1Cl [F42, methyl 3-chloro-6-(2-chloro-4-(trifluoromethyl)phenyl)-5-fluoro-4-methoxypicolinate] | 0 to 29% | 30 to 44% | 0 to 29% | 85 to 94% | 60 to 74% | 0 to 29% | 0 to 29% | 0 to 29% | 85 to 94% | 45 to 59% | 0 to 29% | 0 to 29% | 75 to 84% | 0 to 29% | 0 to 29% | 65 to 67 °C |
| O=C(OCc1ccccc1)c1nc(-c2ccc(C(F)(F)F)cc2Cl)ccc1Cl [F44, benzyl 3-chloro-6-(2-chloro-4-(trifluoromethyl)phenyl)picolinate] | 30 to 44% | 95 to 100% | 45 to 59% | 95 to 100% | 95 to 100% | 0 to 29% | 75 to 84% | 45 to 59% | 95 to 100% | 85 to 94% | 0 to 29% | 85 to 94% | 85 to 94% | 0 to 29% | 75 to 84% | 56 to 57 °C |
| COC(=O)c1nc(-c2ccc(C(F)(F)F)cc2Cl)cc(F)c1Cl [F109, methyl 3-chloro-6-(2-chloro-4-(trifluoromethyl)phenyl)-4-fluoropicolinate] | 0 to 29% | 0 to 29% | 0 to 29% | 0 to 29% | 0 to 29% | 0 to 29% | 0 to 29% | 0 to 29% | 0 to 29% | 0 to 29% | 0 to 29% | 0 to 29% | 0 to 29% | – | 0 to 29% | 127 to 128 °C |
| COC(=O)c1nc(-c2ccc(C(F)(F)F)cc2Cl)c(Cl)cc1Cl [F103, Methyl 3,5-dichloro-6-(2-chloro-4-(trifluoromethyl)phenyl)picolinate] | 0 to 29% | 60 to 74% | 0 to 29% | 75 to 84% | 85 to 94% | 0 to 29% | 30 to 44% | 0 to 29% | 95 to 100% | 75 to 84% | 0 to 29% | 60 to 74% | 75 to 84% | 0 to 29% | 0 to 29% | 85 to 86 °C |
| COC(=O)c1nc(-c2ccc(C(C)=O)cc2Cl)ccc1Cl [F26, methyl 6-(4-acetyl-2-chlorophenyl)-3-chloropicolinate] | 0 to 29% | 0 to 29% | 0 to 29% | 0 to 29% | 0 to 29% | 0 to 29% | 0 to 29% | 0 to 29% | 0 to 29% | 0 to 29% | 0 to 29% | 0 to 29% | 0 to 29% | 0 to 29% | 0 to 29% | – |
